# Experimental data published in US7902190B2, “Indol derivatives, the method for preparing thereof and composition for the prevention and treatment of metabolic disorder containing the same as an active ingredient” (Korea Research Institute of Bioscience and Biotechnology, priority 2006, dated 2011).
# “Also recorded” adds a separate entry of the source.
# Assays:
# DGAT [1] = test: Assay for inhibitory activity against DGAT ([14C]triacylglycerol formation, rat microsomal protein as enzyme source); format: biochemical; conditions: for DGAT (inhibition % in 25 μM) / DGAT (inhibition % in 5 μM): rat microsomal protein as enzyme source; for inhibitory activity against DGAT (in words): rat hepatic microsomal protein, 1,2-diacylglycerol and [14C]palmitoyl-CoA as substrates
# Experimental: The following experiment was performed in order to examine the inhibitory activity of the indole derivatives of the present invention against DGAT. After enzymatic reaction between two substrates, 1,2-diacylglycerol (Sigma, D0138) and [^14C]palmitoyl-CoA (Amersham, CFA583), with the microsomal protein of rats serving as an enzyme source in accordance with Coleman et al, Methods Enzymol., 98-103, 1992, the resulting product [^14C] triacylglycerol was measured for radioactivity.
# In detail, to a reaction buffer (175 mM Tris-HCl, pH 8.0, 20 μl bovine serum albumin (10 mg/ml), 100 mM MgCl2, 30 μM [^14C] palmitoyl-CoA (0.02 μCi, Amersham) and 200 μM 1,2-dioleoyl glycerol) was added 10 μl of a solution of the samples in dimethylsulfoxide (DMSO) and then 100-200 μl of an isolated microsomal protein, followed by reaction at 25° C. for 10 min. The reaction was terminated with 1.5 ml of a mixture of 80:20:2 2-propanol:heptane:water (v:v:v). Thereafter, the [^14C] triacylglycerol thus formed was separated. In this regard, 1 ml of heptane and 0.5 ml of distilled water were added to the reaction mixture, which was then shaken. 1 ml of the supernatant thus formed was mixed with 2 ml of an alkaline ethanol solution (ethanol:0.5 N sodium hydroxide:water=50:10:40, v:v:v), followed by shaking. After it was recovered, 0.65 ml of the supernatant thus formed was measured for radioactivity using an LSC (liquid scintillation counter). The inhibitory activity against DGAT was calculated according to the following Mathematical Formula 1.
# T: Cpm of a test group in which a sample was added to an enzymatic buffer,
# C: Cpm of a control in which no samples were added to an enzymatic buffer,
# B: Cpm of a control in which a sample was added in the absence of any enzyme source.
# DGAT [2] = test: Assay for inhibitory effect on DGAT in cell (triglyceride production from [14C]acetate in HepG2 cells); format: cell-based, human; conditions: 10 μM; for Production Yield of Triglyceride (%): DMSO control taken as 100
# Experimental: The effect of the indole derivatives of the present invention on DGAT was examined with HepG2 cells, hepatic cells derived from the human liver, as follows.
# HepG2 cells, purchased from ATCC, were cultured in MEM (Minimum Essential Medium, 2 mM L-glutamine, Earle's BSS adjusted to contain 1.5 g/L sodium bicarbonate, 0.1 mM nonessential amino acids, and 1 mM sodium pyruvate), supplemented with 10% fetal bovine serum (FBS) and 1% antibiotics (100 U/ml penicillin and 100 µg/ml streptomycin) at 37° C. in a 5% CO2 incubator.
# Intracellular DGAT activity was represented by the amount of triglycerides produced in the cultured HepG2 cells while the compounds (1, 6, 10, 11 and 15) of Chemical Formula 1 were assayed for inhibitory activity against DGAT by measuring the change in intracellular triglyceride production after the addition thereof.
# Cells were plated at a density of 1×10^6 cell/ml per well into 24-well plates and incubated for 24 hours. Then, the medium was exchanged with FBS-free MEM. Thereafter, 0.2 mCi of [^14C]acetate (Amersham) was added as a substrate to the cells, followed by incubation for 18 hours. The production of triglycerides was catalyzed by DGAT so that DGAT activity was determined by the amount of the triglyceride product, which could be measured using radioactivity. For use, the samples were dissolved in dimethyl sulfoxide (DMSO). In a control, triglycerides were synthesized using DMSO without any sample, with the production yield thereof taken as 100.
# The amount of the triglyceride products synthesized was determined as follows. […] 1 ml of the extract was concentrated with nitrogen gas. The total lipid residue thus formed was dissolved in an organic solvent mixture (chloroform:methanol=2:1) and loaded dropwise onto a thin layer chromatography plate (TLC; silica gel 60F254, 0.5 mm, Merck) using a mixture of 80:20:1 hexane:diethylether:acetic acid (v:v:v) as a developing solvent. After the separation of triglycerides (Rf value: 0.4) on TLC, the plate was brought into contact with an autoradiographic film for three hours, followed by image analysis (BAS-1500, Fuji Photo Film Co. Ltd.) to determine the [^14C] radioactivity of the triglycerides. The cells left after the extraction were suspended in 0.3 ml of a 0.1 N sodium hydroxide solution to measure the cellular protein concentration thereof.
# The empirical values were obtained by dividing triglyceride radioactivity by protein level, with correction for experimental errors between test groups.
# SPF ICR mice = test: Single-dose oral acute toxicity, SPF ICR mice; format: in vivo, mouse
# Experimental: In addition, the compounds of the present invention were orally administered once at a dose of as high as 2,000 mg/kg into mice. In this regard, 7-week-old male SPF ICR mice (Dae Han Biolink Co. Ltd.) were acclimated to a new environment for one week and then, at 8 weeks of age, were divided into two groups of three. The test group was orally administered once with a dose of 2 g/kg of Compound 10 in a 0.5% CMC solution, while the control was administered with a 0.5% CMC (carboxymethyl cellulose) solution alone. They were monitored for death, clinical signs, change in body weight and the like for a couple of weeks. Autopsies were performed to examine the abnormality of organs.
SMILES,DGAT (inhibition % in 25 μM) (DGAT [1]),biosynthesis of triglyceride in comparison with the control (in words) (DGAT [2]),Production Yield of Triglyceride (%) (DGAT [2]),DGAT (inhibition % in 5 μM) (DGAT [1]),other results
"NC(=O)c1cccc(NC(=O)CCc2c[nH]c3ccccc23)c1 [Compound 1, 3-(3-1H-indol-3-yl-propionylamino)-benzamide]",4.66%,produced smaller amounts of triglycerides than did the control,95.5 ± 5.7%,–,–
"NC(=O)c1cccc(NC(=O)/C=C/c2c[nH]c3ccccc23)c1 [Compound 2, 3-(3-1H-indol-3-yl-acryloylamino)-benzamide]",19.36%,–,–,–,–
"COC(=O)c1cccc(NC(=O)/C=C/c2c[nH]c3ccccc23)c1 [Compound 4, 3-(3-1H-indol-3-yl-acryloylamino)-benzoic Acid Methyl Ester]",18.72%,–,–,–,–
"O=C(CCc1c[nH]c2ccccc12)Nc1cccc(C(=O)O)c1 [Compound 5, 3-(3-1H-indol-3-yl-propionylamino)-benzoic Acid]",0.08%,–,–,–,–
"O=C(/C=C/c1c[nH]c2ccccc12)Nc1cccc(C(=O)O)c1 [Compound 6, 3-(3-1H-indol-3-yl-acryloylamino)-benzoic Acid]",11.52%,produced smaller amounts of triglycerides than did the control,92.5 ± 6.7%,–,–
"O=C(/C=C/c1c[nH]c2ccccc12)Nc1cccc(C(=O)NCCN2CCCCC2)c1 [Compound 7, 3-(3-1H-indol-3-yl-acryloylamino)-N-(2-piperidin-1-yl-ethyl)-benzamide]",−3.11%,–,–,−5.29%,–
"O=C(/C=C/c1c[nH]c2ccccc12)Nc1cccc(C(=O)NCCCN2CCOCC2)c1 [Compound 8, 3-(3-1H-indol-3-yl-acryloylamino)-N-(3-morpholin-4-yl-propyl)-benzamide]",2.05%,–,–,3.06%,–
"O=C(/C=C/c1c[nH]c2ccccc12)Nc1cccc(C(=O)NCc2ccco2)c1 [Compound 9, N-furan-2-ylmethyl-3-(3-1H-indol-3-yl-acryloylamino)-benzamide]",13.24%,–,–,2.72%,–
"CC(C)(C)OC(=O)n1cc(/C=C/C(=O)Nc2cccc(C(=O)NCc3ccco3)c2)c2ccccc21 [Compound 10, 3-(2-3-[(Furan-2-ylMethyl)-Carbamoyl]-Phenylcarbamoyl-Vinyl)-Indole-1-Carboxylic Acid-t-Butyl Ester]",78.68%,produced smaller amounts of triglycerides than did the control; also recorded: highly inhibit the biosynthesis of triglyceride,49.2 ± 5.7%,60.22%,"inhibitory activity against DGAT (in words) (DGAT [1]): potent inhibitory activity against DGAT in a dose-dependent manner; inhibition of the biosynthesis of triglycerides (DGAT [2]): 50.8%; oral acute toxicity (in words) (SPF ICR mice; administered once at a dose of up to 2,000 mg/kg): no oral acute toxicity; Mortality (No. of Dead/No of Tested) (SPF ICR mice; single oral dose 2 g/kg in 0.5% CMC, monitored two weeks): 0/3; Body Weight (g) Day 0 (SPF ICR mice; single oral dose 2 g/kg, Day 0, Mean ± SD): 36 ± 0.5 g; Body Weight (g) Day 1 (SPF ICR mice; single oral dose 2 g/kg, Day 1, Mean ± SD): 38 ± 1.0 g; Body Weight (g) Day 3 (SPF ICR mice; single oral dose 2 g/kg, Day 3, Mean ± SD): 38 ± 0.2 g; Body Weight (g) Day 7 (SPF ICR mice; single oral dose 2 g/kg, Day 7, Mean ± SD): 39 ± 1.2 g; Body Weight (g) Day 14 (SPF ICR mice; single oral dose 2 g/kg, Day 14, Mean ± SD): 42 ± 2.0 g"
"O=C(/C=C/c1cn(Cc2ccccc2)c2ccccc12)Nc1cccc(C(=O)NCc2ccco2)c1 [Compound 11, 3-[3-(1-Benzyl-1H-indol-3-yl)-acryloylamino]-N-furan-2-ylmethyl-benzamide]",64.13%,produced smaller amounts of triglycerides than did the control; also recorded: highly inhibit the biosynthesis of triglyceride,55.5 ± 7.2%,54.09%,inhibitory activity against DGAT (in words) (DGAT [1]): potent inhibitory activity against DGAT in a dose-dependent manner; inhibition of the biosynthesis of triglycerides (DGAT [2]): 44.5%
"CN(C)CCn1cc(/C=C/C(=O)Nc2cccc(C(=O)NCc3ccco3)c2)c2ccccc21 [Compound 12, 3-{3[1-(2-Dimethylamino-ethyl)-1H-indol-3-yl]-acryloylamino}-N-furan-2-ylmethyl-benzamide]",−0.38%,–,–,−11.04%,–
"CC(C)(C)OC(=O)Cn1cc(/C=C/C(=O)Nc2cccc(C(=O)NCc3ccco3)c2)c2ccccc21 [Compound 13, [3-(2-{3-[(Furan-2-ylmethyl)-carbamoyl]-phenylcarbamoyl}-vinyl)-indol-1-yl]-acetic acid-t-butyl Ester]",53.15%,–,–,−0.95%,–
O=C(/C=C/c1cn(S(=O)(=O)Cc2ccccc2)c2ccccc12)Nc1cccc(C(=O)NCc2ccco2)c1 [Compound 14],50.89%,–,–,43.19%,inhibitory activity against DGAT (in words) (DGAT [1]): potent inhibitory activity against DGAT in a dose-dependent manner
"O=C(/C=C/c1cn(S(=O)(=O)c2cccs2)c2ccccc12)Nc1cccc(C(=O)NCc2ccco2)c1 [Compound 15, N-furan-2-ylmethyl-3-[3-[1-(thiophene-2-sulfonyl)-1H-indol-3-yl]-acryloylamino]-benzamide]",49.88%,produced smaller amounts of triglycerides than did the control; also recorded: highly inhibit the biosynthesis of triglyceride,61.5 ± 7.1%,40.88%,inhibitory activity against DGAT (in words) (DGAT [1]): potent inhibitory activity against DGAT in a dose-dependent manner; inhibition of the biosynthesis of triglycerides (DGAT [2]): 38.5%
"CC(=O)n1cc(/C=C/C(=O)Nc2cccc(C(=O)NCc3ccco3)c2)c2ccccc21 [Compound 16, 3-[3-(1-Acetyl-1H-indol-3-yl)-acryloylamino]-N-furan-2-ylmethyl-benzamide]",39.82%,–,–,−10.09%,–
